Key:
[1] = Serum stability of 68Ga- and 177Lu-labeled exendin-4 analogues in human serum; assay type: in vitro ADME; conditions: ^177Lu-labeled peptide, human serum (1:10), 37 °C, after 24 h, acetonitrile precipitation, RP-HPLC
Description: Serum stability was analyzed as described in the Supporting Information.
The radiolabeled compounds were incubated in
10 human serum (1:10) at 37°C and samples were taken after 1 and 2 hour incubation for the 68Ga-labeled
12 Supernatant was obtained by precipitating the serum proteins by adding a 1:1 (v/v) volume of
13 acetonitrile, followed by centrifugation for 5 min at 3220xg. Subsequently, the supernatant was
14 analyzed using RP-HPLC. RP-HPLC was performed as described in the main text.

[2] = Dosimetry: kidney self-dose in mice (OLINDA/EXM, 25 g RADAR model); set-up: species or system mouse
Description: The kidney self-dose was calculated based on the activity distribution of the tracer in the kidneys. Time-integrated activity coefficients (MBq-h/MBq) were calculated using mono-exponential curve-fitting between the timepoints.

[3] = Dosimetry: absorbed kidney dose extrapolated to humans (OLINDA/EXM, 80 kg male reference model); set-up: species or system human; conditions: radiolabeled tracer (^68Ga or ^177Lu), extrapolated from mice data
Source text: The mice data were then used to extrapolate the expected absorbed kidney doses per injected activity to humans using the equation:[25],[26] [drawing 1] with [drawing 2] the percentage of the injected activity concentration, [drawing 3] the percentage of the injected activity per organ, m the organ mass, and M the total human or mouse body weight.

[4] = co-administration; cited from earlier work
Source text: Several successful strategies to reduce the renal uptake of radiolabeled peptides have been described. […]. […] These two studies evoked the question whether the translation of the methionine–isoleucine linker to exendin-4 could help to reduce the renal uptake of exendin. Based on literature, the additio ...

Row | Molecule | serum stability [1] | reduction of estimated absorbed kidney dose vs reference without MI linker ([2]; in both mice and humans) | estimated absorbed kidney dose per injected activity, mice ([2]; radiolabeled tracer (^68Ga or ^177Lu), from biodistribution in INS-1 tumor-bearing mice, OLINDA/EXM 2.1, 25 g RADAR model) | estimated absorbed kidney dose per injected activity, humans [3] | increase in renal uptake of radiolabeled exendin [4]
1 | Lys^40[Mep((S-)DOTA-Met-Ile-Mal-)]exendin-4 [DOTA-MI-exendin-4] | >80% after 24 h | 57% | 1974 mSv/MBq | 0.89 mSv/MBq | 
2 | NCCCC[C@H](N)C(=O)O [lysine] |  |  |  |  | 6%

— PMC10324399, “New Radiolabeled Exendin Analogues Show Reduced Renal Retention” (Molecular Pharmaceutics, 2023)
